In general, IC50 refers to the concentration that inhibits the measured activity by half. Read a low IC50 as greater potency. For orientation: half-life means the time in which the quantity being followed falls by half. High values mean slow loss, low ones fast loss.

Experimental findings from patent US20260193294A1, “POLYPEPTIDE INHIBITOR, AND PREPARATION METHOD THEREFOR AND USE THEREOF” (SHANGHAI HANSOH BIOMEDICAL CO., LTD., priority 2022, published 2026) are described below.

For data set [1], the system named is IL23-induced rat otitis model. Put plainly: In vivo pharmacodynamics in IL23-induced rat otitis model (ear thickening). Also on record: species or system SD rats. Particulars: 10 mg/kg, gavage, QD. An excerpt:
To evaluate the in vivo efficacy of the compounds in an IL23-induced rat otitis model.
SD rats, 6-8 weeks old, male, purchased from Jiangsu GemPharmatech Co., Ltd.
• a. […]

A further data set deals with T1, IL23R (Homo sapiens, UniProt Q5VWK5).
T1 construct: Tag2 (identity not disclosed); purchased PerkinElmer 64BDPIL23PEH
T1 sequence (Q5VWK5 24-355 limits assumed): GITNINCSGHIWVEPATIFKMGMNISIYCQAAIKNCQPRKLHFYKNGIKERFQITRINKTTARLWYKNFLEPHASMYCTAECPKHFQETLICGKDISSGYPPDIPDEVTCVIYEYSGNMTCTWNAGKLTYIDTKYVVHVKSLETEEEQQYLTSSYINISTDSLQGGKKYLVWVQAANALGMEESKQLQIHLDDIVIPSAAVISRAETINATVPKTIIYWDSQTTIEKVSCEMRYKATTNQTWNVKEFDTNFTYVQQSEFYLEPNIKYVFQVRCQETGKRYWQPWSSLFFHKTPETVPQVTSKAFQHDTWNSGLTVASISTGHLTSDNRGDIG
Put plainly: Competing with IL23 for binding to IL23R (HTRF, IL23/IL23R binding assay kit). Particulars: 2 hours incubation at room temperature. As for the experimental part:
(§1) The compounds of the present disclosure were screened in IL23/IL23R BINDING ASSAY KITS (PerkinElmer Cat #64BDPIL23PEH). The screening of the compounds of the present disclosure was carried out by using a multi-well plate (suitable for HTRF determination). Generally, 2 μl of several compounds of the present disclosure and STANDARD SOLUTIONS in KIT were first respectively added to the wells of the multi-well plate. 4 μl of Tag1-IL23, 4 μl of Tag2-IL23R, and 10 μL of pre-mixed Anti-Tag1 Eu Cryptate Antibody and Anti-Tag2 d2 reagent were necessarily added to all the wells. The multi-well plate was protected from light by an opaque cover membrane, and the opaque cover membrane was then removed
as §1, with “removed after 2 hours of incubation at room temperature. The signal value was read by an HTRF-compatible detection instrument to detect IC50 value.” for “removed”
The inhibition rate was calculated as follows: […]
By using log (inhibitor) vs. response—Variable slope (four parameters) in Graphpad, the data of HTRF experiment results were subjected to non-linear regression fitting to fit a curve and obtain the IC50 value.
(In general: Time-resolved FRET reads energy transfer from a long-lived donor to a nearby acceptor.)

Another data set in a line: in vivo. To be noted: male, beagle, dog, iv, 0.2 mg/kg.

In the case of `CC(=O)NCCCC[C@@H]1NC(=O)[C@H](Cc2c[nH]c3c(C)cccc23)NC(=O)[C@H]([C@@H](C)O)NC(=O)[C@H](CC(N)=O)NC(=O)[C@@H](NC(C)=O)C(C)(C)SSC(C)(C)[C@@H](C(=O)N[C@@H](Cc2ccc(OCCN)cc2)C(=O)N[C@@H](Cc2ccc3ccccc3c2)C(=O)NC2(C(=O)N[C@@H](CCC(=O)O)C(=O)N[C@@H](CC(N)=O)C(=O)N[C@@H](Cc3cccnc3)C(=O)N(C)CCNC(=O)CCOCCOCC[N+](C)(C)CCNC(=O)COCCOCCNC(=O)COCCOCCNC(=O)CC[C@H](NC(=O)CCCCCCCCCCCCCCC(=O)O)C(=O)O)CCC(F)(F)CC2)NC1=O` [Example 1-16-1], the “Inhibition rate on Day 4 (ear thickening)” value in data set [1] was determined as 70.77%. Moreover, the 50% inhibitory concentration (IC50) at IL23R came out at 2.73 nM. The half-life in “in vivo” is 53.8 h.
